Experimental data from the Deep4Chem optical property database.

Test: solvent given as SMILES

c1ccc(-c2cc3ccccc3p2-c2ccccc2)cc1 (stereo not drawn)
absorption maximum (in C1CCOC1): 321 nm

C(=C\c1cccc2ccccc12)/c1ccc(Oc2ccc3ccccc3c2-c2c(Oc3ccc(/C=C/c4cccc5ccccc45)cc3)ccc3ccccc23)cc1
absorption maximum (in ClCCl): 334 nm

CCCCCCCCn1c(=O)c2cc3cc4cc5c(=O)n(CCCCCCCC)c(=O)c5cc4cc3cc2c1=O
absorption maximum (in ClC(Cl)Cl): 421 nm

COc1ccc2c3ccc(OC)cc3c3cc4c(C)cc(=O)oc4cc3c2c1
absorption maximum (in ClC(Cl)Cl): 365 nm

Brc1cnc(-c2ccc(N(c3ccccc3)c3ccccc3)cc2)s1
absorption maximum (in CO): 369 nm

Cc1cc(C(F)(F)F)nc2c1ccc1nc(-c3ccc(Cl)cc3)cn12
absorption maximum (in CC#N): 362.6 nm | absorption maximum (in CCCCCC): 376.5 nm | absorption maximum (in CCCCOC(C)=O): 368.6 nm | absorption maximum (in CCOC(C)=O): 368.2 nm | absorption maximum (in CO): 359.6 nm | absorption maximum (in Cc1ccccc1): 375.2 nm | absorption maximum (in ClC(Cl)Cl): 369.2 nm | absorption maximum (in ClCCl): 366.6 nm | absorption maximum (in c1ccccc1): 375 nm

C[C@@]12SC(Cl)=CC1=c1nc(-c3ccc(Cl)cc3)[nH]c1=C1C=C(Cl)S[C@]12C
absorption maximum (in CC#N): 327 nm

c1ccc(-c2ncc3ccccn23)cc1
absorption maximum (in ClC(Cl)Cl): 317 nm

CC(C)(C)c1ccc2c(c1)c1cc(C(C)(C)C)ccc1n2-c1cc(N2c3ccccc3C(c3ccccc3)(c3ccccc3)c3ccccc32)cc(-n2c3ccc(C(C)(C)C)cc3c3cc(C(C)(C)C)ccc32)c1C#N
absorption maximum (in Cc1ccccc1): 378 nm

F[B-]1(F)n2cccc2C(c2ccccc2)=C2C=CC(c3cccc(OC4=[N+]5C(=C(c6ccccc6)c6cc(Br)c(-c7ccc[nH]7)n6[B-]5(F)F)C=C4Br)c3)=[N+]21
absorption maximum (in ClC(Cl)Cl): 627 nm

O=C1/C(=C2\Nc3cc4ccc5cccc6ccc(c3C2=O)c4c56)Nc2cc3ccc4cccc5ccc(c21)c3c45
absorption maximum (in C1CCOC1): 687 nm

CC1=[N+]2C(=C(c3c4ccccc4cc4ccccc34)c3ccc(/C=C/C(C)(C)C)n3[B-]2(F)F)C=C1
absorption maximum (in ClC(Cl)Cl): 549 nm

COC(=O)C(NC(=O)OC(C)(C)C)c1ccc2oc(-c3ccc(OC(=O)c4ccccc4)cc3OC(=O)c3ccccc3)nc2c1 (stereo not drawn)
absorption maximum (in CC1CCCCC1): 323 nm | absorption maximum (in CC#N): 306 nm | absorption maximum (in CO): 306 nm

COc1cc(/C=C/c2ncc(-c3ccncc3)o2)cc(OC)c1OC
absorption maximum (in ClCCl): 352 nm

CCCCCCCCCCCn1cccc1C1=[N+]2C(=Cc3c(C)cc(C)n3[B-]2(F)F)c2ccccc21
absorption maximum (in C1CCOC1): 584 nm | absorption maximum (in CC#N): 577 nm | absorption maximum (in CCCCCC): 583 nm | absorption maximum (in CO): 579 nm | absorption maximum (in Cc1ccccc1): 590 nm | absorption maximum (in ClCCl): 584 nm

Cn1c(=O)c(/N=N/c2ccc(/N=N/c3ccc(S(=O)(=O)O)cc3)cc2)c(O)c2ccccc21
absorption maximum (in C1CCOC1): 454 nm | absorption maximum (in CC(C)=O): 453 nm | absorption maximum (in CCOC(C)=O): 452 nm | absorption maximum (in CO): 452 nm | absorption maximum (in CS(C)=O): 460 nm | absorption maximum (in Cc1ccccc1): 458 nm | absorption maximum (in ClCCl): 457 nm | absorption maximum (in O): 447 nm

CCc1c(C)c2n(c1C)[B-](F)(F)[N+]1=C(NCc3ccc(OC)cc3)C=CC1=C2C
absorption maximum (in CC#N): 524 nm | absorption maximum (in CCCCCC): 534 nm | absorption maximum (in CCOC(C)=O): 527 nm | absorption maximum (in CO): 525 nm | absorption maximum (in ClCCl): 531 nm

COc1ccc2cc(/C=C/c3nc(/C=C/c4ccc(N(c5ccccc5)c5ccccc5)cc4)cc(/C=C/c4ccc(N(c5ccccc5)c5ccccc5)cc4)n3)ccc2c1
absorption maximum (in ClCCl): 424 nm

c1ccc(-c2ccc3c4ccc(-c5ccccc5)c5c(-c6ccccc6)ccc(c6ccc(-c7ccccc7)c2c36)c54)cc1
absorption maximum (in ClCCl): 486 nm

Cc1cc(C)c(B(c2ccc(C#Cc3cc4ccc5cc(C#Cc6ccc(B(c7c(C)cc(C)cc7C)c7c(C)cc(C)cc7C)cc6)cc6ccc(c3)c4c56)cc2)c2c(C)cc(C)cc2C)c(C)c1
absorption maximum (in Cc1ccccc1): 414 nm

Oc1ccccc1/C=N/c1cc2nc3ccccc3nc2cc1/N=C/c1ccccc1O
absorption maximum (in CC#N): 403 nm

O=C1CCCc2c1[nH]c1cc3c(cc21)OCO3
absorption maximum (in C1CCOC1): 337.3 nm | absorption maximum (in CC#N): 335.33 nm | absorption maximum (in CCCCCCO): 343.23 nm | absorption maximum (in CCO): 338.86 nm | absorption maximum (in CCOC(C)=O): 335.84 nm | absorption maximum (in CS(C)=O): 340.34 nm | absorption maximum (in O): 341.09 nm | absorption maximum (in c1ccccc1): 339.29 nm

CC(C)(C)c1ccc2c(c1)c1cc(C(C)(C)C)ccc1n2-c1ccc(C(=O)c2ccncc2)cc1
absorption maximum (in C1CCOC1): 367.32 nm | absorption maximum (in CCCCCC): 372.17 nm | absorption maximum (in Cc1ccccc1): 373.66 nm | absorption maximum (in ClCCl): 377.92 nm

CCOC(=O)c1cc(C(=O)OCC)c2ccc(C)cc2n1
absorption maximum (in CCO): 321 nm

Fc1cc(-c2ccc(-c3nc4cc(Br)ccc4[nH]3)cc2)ccc1-c1ccc(-c2nc3cc(Br)ccc3[nH]2)cc1
absorption maximum (in CN(C)C=O): 342 nm

CC(=O)C1=C(O)CC2Oc3c(C(C)=O)c(O)c(C)c(O)c3C2(C)C1=O (stereo not drawn)
absorption maximum (in ClC(Cl)Cl): 340 nm

CC(C)c1cccc(C(C)C)c1N1C(=O)c2ccc3c(-c4ccc(C(=O)O)cc4)c4c5ccc6c7c(ccc(c(-c8ccc(C(=O)O)cc8)c4c4ccc(c2c34)C1=O)c75)C(=O)N(c1c(C(C)C)cccc1C(C)C)C6=O
absorption maximum (in ClCCl): 622 nm

Cc1ccc(-c2ccc(C(=O)NC(C)(C)C)c3c2ccc2c4ccccc4c4ccccc4c23)cc1
absorption maximum (in ClCCl): 341 nm

Cc1cn(C(F)(F)F)c(=O)[nH]c1=O
absorption maximum (in CC#N): 255 nm

COc1ccc(C#Cc2ccc3nc4ccc(C#Cc5ccc(OC)cc5)cn4c(=O)c3c2)cc1
absorption maximum (in ClCCl): 385 nm

Cc1ccc(N(c2ccc(C)cc2)c2ccc(Oc3nnc(Cl)nn3)cc2)cc1
absorption maximum (in ClCCl): 523 nm

COC(=O)C[C@H](Cc1c[nH]c2ccccc12)NC(=O)[C@H](CC(=O)N[C@@H](CC1=CCc2ccccc21)C(=O)OC)NC(=O)OC(C)(C)C
absorption maximum (in CC#N): 280 nm | absorption maximum (in CCOC(C)=O): 280 nm | absorption maximum (in CO): 280 nm

O=P(c1ccccc1)(c1ccccc1)c1cccc(-c2nc3ccccc3n2-c2cccc(P(=O)(c3ccccc3)c3ccccc3)c2)c1
absorption maximum (in ClCCl): 304 nm

COc1ccccc1C1=[N+]2C(=Cc3c4c(c(-c5ccccc5OC)n3[B-]2(F)F)C2CCC4CC2)C2=C1C1CCC2CC1
absorption maximum (in ClCCl): 550 nm

c1ccc(CSc2c3ccc(=[N+]4CCCCC4)cc-3oc3cc(N4CCCCC4)ccc23)cc1
absorption maximum (in ClCCl): 598 nm

COc1cc(-c2nc(-c3ccccc3)c(-c3ccccc3)[nH]2)c(OC)cc1/C=C/c1ccncc1
absorption maximum (in C1CCOC1): 394 nm | absorption maximum (in CC#N): 392 nm | absorption maximum (in CN(C)C=O): 397 nm | absorption maximum (in Cc1ccccc1): 398 nm

F[Si](c1ccccc1)(c1ccccc1)c1c2ccccc2cc2ccccc12
absorption maximum (in C1CCOC1): 393 nm | absorption maximum (in ClC(Cl)Cl): 394 nm

FC(F)(F)c1ccc(-c2nnc(-c3cc(-c4nnc(-c5ccc(C(F)(F)F)cc5)o4)c(-n4c5ccccc5c5ccccc54)cc3-n3c4ccccc4c4ccccc43)o2)cc1
absorption maximum (in Cc1ccccc1): 376 nm

c1ccc2nc3c(nc2c1)c1c2n3CCCN2CCCC1
absorption maximum (in CC#N): 419 nm | absorption maximum (in CCCCCC): 408 nm | absorption maximum (in CS(C)=O): 441 nm

CC(C)(C)c1ccc(N(c2ccc(C(C)(C)C)cc2)c2cc(N(c3ccc(C(C)(C)C)cc3)c3ccc(C(C)(C)C)cc3)c3ccc4cc(C(C)(C)C)cc5ccc2c3c54)cc1
absorption maximum (in ClCCl): 425 nm

CC(C)(C)c1ccc2c(c1)c1cc(C(C)(C)C)ccc1n2-c1ccc(C(=O)c2ccc(-n3c4ccc(C(C)(C)C)cc4c4cc(C(C)(C)C)ccc43)nc2)cn1
absorption maximum (in C1CCOC1): 377.31 nm | absorption maximum (in Cc1ccccc1): 383.97 nm | absorption maximum (in ClCCl): 382.72 nm

COc1cc2c(cc1OC)C1=C[C@H](c3ccc(Cl)cc3)C3(C(C#N)=C(C#N)N1CC2)c1cc(Cl)ccc1-c1ccc(Cl)cc13
absorption maximum (in ClCCl): 314 nm

Cc1cc(C)c(C)c(B(c2c(C)c(C)cc(C)c2C)c2c(C)c(C)c(N3c4ccccc4Oc4ccccc43)c(C)c2C)c1C
absorption maximum (in CC(C)(C)c1ccc(-n2c3ccc([Si](c4ccccc4)(c4ccccc4)c4ccccc4)cc3c3cc([Si](c4ccccc4)(c4ccccc4)c4ccccc4)ccc32)cc1): 373 nm

Cc1cc(-c2ccc(-c3nc4ccccc4[nH]3)cc2)c(C)cc1-c1ccc(-c2nc3ccccc3[nH]2)cc1
absorption maximum (in CN(C)C=O): 323 nm

c1ccc(-c2nc(-c3ccccc3)nc(-c3ccc(-n4c5ccccc5c5ccccc54)cc3)n2)cc1
absorption maximum (in Cc1ccccc1): 364 nm

COc1ccc(-c2cc3c(o2)=CC2=C(C(F)(F)F)c4cc5oc(-c6ccc(OC)cc6)cc5n4[B-](F)(F)[N+]=32)cc1
absorption maximum (in ClC(Cl)Cl): 723 nm

COc1ccc(-c2nc3c(c4c2-c2ccc(C#N)cc2CC4)-c2ccc(C#N)cc2CC3)cc1
absorption maximum (in C1CCOC1): 332 nm | absorption maximum (in CC#N): 329 nm | absorption maximum (in CCCCCC): 336 nm | absorption maximum (in CCOC(C)=O): 324 nm | absorption maximum (in CO): 326 nm | absorption maximum (in CS(C)=O): 331 nm | absorption maximum (in Cc1ccccc1): 334 nm | absorption maximum (in ClCCl): 333 nm

Cc1cc2c3ccccc3[nH]c2c2[nH]c3ccccc3c12
absorption maximum (in ClCCl): 323 nm

Cc1cc(O)c(C(C)C)cc1/N=C/c1ccc(O)cc1
absorption maximum (in C1CCCCC1): 339 nm | absorption maximum (in C1CCOC1): 342 nm | absorption maximum (in C1COCCO1): 341 nm | absorption maximum (in CC#N): 334 nm | absorption maximum (in CC(C)(C)O): 345 nm | absorption maximum (in CC(C)O): 340 nm | absorption maximum (in CCCCCC): 339 nm | absorption maximum (in CCCCO): 340 nm | absorption maximum (in CCO): 340 nm | absorption maximum (in CCOC(C)=O): 340 nm | absorption maximum (in CN(C)C=O): 344 nm | absorption maximum (in CO): 341 nm | absorption maximum (in CS(C)=O): 346 nm | absorption maximum (in ClC(Cl)Cl): 337 nm | absorption maximum (in ClCCl): 335 nm | absorption maximum (in O): 342 nm | absorption maximum (in OCCO): 342 nm

c1ccc2c(c1)-c1ccccc1C21c2ccccc2N(c2ccc(-c3nc([C@]45CC6CC(C[C@@H](C6)C4)C5)nc([C@]45C[C@H]6C[C@@H](C[C@H](C6)C4)C5)n3)cc2)c2ccccc21
absorption maximum (in Cc1ccccc1): 380.1 nm

COc1cc(OC)cc(C2=[O+][B-](F)(F)OC(c3cccs3)=C2)c1
absorption maximum (in ClCCl): 391 nm

O=C1c2ccc3c4c(Oc5ccccc5)cc5c6c(ccc(c7c(Oc8ccccc8)cc(c2c37)C(=O)N1c1ccc(O)cc1)c64)C(=O)N(c1ccc(O)cc1)C5=O
absorption maximum (in C1CCOC1): 513 nm | absorption maximum (in CN1CCCC1=O): 487 nm | absorption maximum (in CN(C)C=O): 495 nm
